Measured values published in patent US11629171B2, “Beta-hairpin peptidomimetics” (POLYPHOR AG, priority 2017, dated 2023).
Converted amounts (≈) assume the structure as drawn. Where a SMILES comes first, the peptide text is derived from it. Bridges are numbered along the chain shown (N, C = ends). Roman numbers before positions name the chains, in order. [ ]: non-standard residue; d: D form. The star is where a group is joined. Thr(ol) = C[C@@H](O)[C@H](N)CO; Pen = CC(C)(S)[C@H](N)C(=O)O; Tle = CC(C)(C)[C@H](N)C(=O)O; Hiv = CC(C)[C@H](O)C(=O)O; dDab = NCC[C@@H](N)C(=O)O; hSer = N[C@@H](CCO)C(=O)O; Dab = NCC[C@H](N)C(=O)O; Dap = NC[C@H](N)C(=O)O; NHCH2CH2OH = OCCN*

Key:
Assay type in all cases: cell-based
[1] = test system: Acinetobacter baumannii 872842; conditions: 872842
Method in brief: (§1)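 CLSI broth microdilution: inoculum ~10^6 CFU/mL in cation-adjusted Mueller-Hinton II broth, with peptide in serial two-fold dilutions plus Polysorbate 80 (0.002% final). MIC (μg/mL) is the lowest concentration without visible growth after 18-20 hours at 35° C.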

[2] = test system: Acinetobacter baumannii DSM 30008; conditions: DSM 30008
Method in brief: as §1

[3] = test system: Enterobacter cloacae 848840; conditions: 848840
Method in brief: as §1

Escherichia coli 926415 = conditions: 926415
Method in brief: as §1

[4] = test system: Escherichia coli ATCC 25922; conditions: ATCC 25922
Method in brief: as §1

[5] = test system: Klebsiella pneumoniae 968733; conditions: 968733
Method in brief: as §1

[6] = test system: Klebsiella pneumoniae SSI #3010; conditions: SSI #3010
Method in brief: as §1

[7] = test system: Pseudomonas aeruginosa ATCC 27853; conditions: ATCC 27853
Method in brief: as §1

[8] = test system: human red blood cells (hRBC); assay: Hemolysis; conditions: red cells of human, 1 h, 200
Method in brief: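 Washed fresh hRBC (20% v/v) were incubated with peptides at 200 μg/mL for 1 h at 37° C with shaking at 300 rpm. Supernatant OD540 was read after centrifugation and dilution, blank-corrected, and expressed as percent of the 2% Triton X-100 (100% lysis) control; PBS with 10% water gave 0%.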

| Compound | MIC [1] [µg/mL] | MIC [2] [µg/mL] | MIC [3] [µg/mL] | MIC (Escherichia coli 926415) [µg/mL] | MIC [4] [µg/mL] | MIC [5] [µg/mL] | MIC [6] [µg/mL] | MIC [7] [µg/mL] | Hemolysis at 200 μg/mL [8] [%] |
| --- | --- | --- | --- | --- | --- | --- | --- | --- | --- |
| CC(C)C[C@@H]1NC(=O)[C@@H](CC(C)C)NC(=O)[C@H](CCN)NC(=O)[C@@H](NC(=O)[C@H](CCN)NC(=O)[C@H](CO)NC(=O)[C@H](CCN)NC(=O)CC[C@@H]2NC(=O)[C@H](CCN)NC(=O)[C@H](Cc3ccc(O)cc3)NC(=O)[C@@H](NC(=O)[C@@H](O)C(C)C)CSSC[C@@H](C(=O)N[C@H](CO)[C@@H](C)O)NC(=O)[C@H](C(C)(C)C)NC(=O)[C@H](CO)NC(=O)[C@H](Cc3c[nH]c4ccccc34)NC(=O)[C@H](CCO)NC(=O)[C@@H](CCN)NC2=O)CCNC(=O)[C@H]([C@@H](C)O)NC(=O)[C@H](CCN)NC(=O)[C@H](CCN)NC1=O [Ex. 60] (I: H-[Hiv]CY[Dab]E[dDab][hSer]WS[Tle]C[Thr(ol)] / II: [Dab]S[Dab][Dab][Dab][dL]L[Dab][Dab]T; disulfide I:2-I:11; amide I:5-II:N; lactam II:4-II:C) | 0.125 (≈ 0.0524 µM) | 0.0625 (≈ 0.0262 µM) | 4 (≈ 1.68 µM) | 0.125 (≈ 0.0524 µM) | 0.0625 (≈ 0.0262 µM) | 0.125 (≈ 0.0524 µM) | 0.125 (≈ 0.0524 µM) | 0.125 (≈ 0.0524 µM) | <1 |
| CC(C)C[C@@H]1NC(=O)[C@@H](Cc2ccccc2)NC(=O)[C@H](CCN)NC(=O)[C@@H](NC(=O)[C@H](CCN)NC(=O)[C@@H](NC(=O)[C@H](CCN)NC(=O)CC[C@@H]2NC(=O)[C@H](CCN)NC(=O)[C@H](Cc3ccc(O)cc3)NC(=O)[C@@H](NC(=O)[C@@H](O)C(C)C)CSSC[C@@H](C(=O)N[C@H](CO)[C@@H](C)O)NC(=O)[C@H](C(C)(C)C)NC(=O)[C@H](CO)NC(=O)[C@H](Cc3c[nH]c4ccccc34)NC(=O)[C@H](CCO)NC(=O)[C@@H](CCN)NC2=O)[C@@H](C)O)CCNC(=O)[C@H]([C@@H](C)O)NC(=O)[C@H](CCN)NC(=O)[C@H](CCN)NC1=O [Ex. 61] (I: H-[Hiv]CY[Dab]E[dDab][hSer]WS[Tle]C[Thr(ol)] / II: [Dab]T[Dab][Dab][Dab][dF]L[Dab][Dab]T; disulfide I:2-I:11; amide I:5-II:N; lactam II:4-II:C) | 0.125 (≈ 0.0513 µM) | 0.0625 (≈ 0.0257 µM) | 0.125 (≈ 0.0513 µM) | 0.25 (≈ 0.103 µM) | 0.125 (≈ 0.0513 µM) | 0.125 (≈ 0.0513 µM) | 0.0625 (≈ 0.0257 µM) | 0.125 (≈ 0.0513 µM) | 3 |
| CC(=O)N[C@@H](CO)C(=O)N[C@H]1CSSC[C@@H](C(=O)N[C@H](C(N)=O)C(C)C)NC(=O)[C@H](C(C)C)NC(=O)[C@H](CO)NC(=O)[C@H](Cc2c[nH]c3ccccc23)NC(=O)[C@H](CCO)NC(=O)[C@@H](CCN)NC(=O)[C@H](CCC(=O)N[C@@H](CCN)C(=O)N[C@H](C(=O)N[C@@H](CCN)C(=O)N[C@H]2CCNC(=O)[C@H]([C@@H](C)O)NC(=O)[C@H](CCN)NC(=O)[C@H](CCN)NC(=O)[C@H](CC(C)C)NC(=O)[C@@H](CC(C)C)NC(=O)[C@H](CCN)NC2=O)[C@@H](C)O)NC(=O)[C@H](CCN)NC(=O)[C@H](Cc2ccc(O)cc2)NC1=O [Ex. 62] (I: Ac-SCY[Dab]E[dDab][hSer]WSVCV-NH2 / II: [Dab]T[Dab][Dab][Dab][dL]L[Dab][Dab]T; disulfide I:2-I:11; amide I:5-II:N; lactam II:4-II:C) | 0.125 (≈ 0.0515 µM) | 0.0625 (≈ 0.0258 µM) | 4 (≈ 1.65 µM) | 0.25 (≈ 0.103 µM) | 0.125 (≈ 0.0515 µM) | 0.125 (≈ 0.0515 µM) | 0.0625 (≈ 0.0258 µM) | 0.125 (≈ 0.0515 µM) | <1 |

The next lines start with results.

| MIC [1] [µg/mL] | MIC [2] [µg/mL] | MIC [3] [µg/mL] | MIC (Escherichia coli 926415) [µg/mL] | MIC [4] [µg/mL] | MIC [5] [µg/mL] | MIC [6] [µg/mL] | MIC [7] [µg/mL] | Compound | Hemolysis at 200 μg/mL [8] [%] |
| --- | --- | --- | --- | --- | --- | --- | --- | --- | --- |
| 2 (≈ 0.819 µM) | 1 (≈ 0.41 µM) | 2 (≈ 0.819 µM) | 2 (≈ 0.819 µM) | 0.25 (≈ 0.102 µM) | 4 (≈ 1.64 µM) | 0.25 (≈ 0.102 µM) | 0.25 (≈ 0.102 µM) | CC(=O)N[C@H](C(=O)N[C@H]1CSSC[C@@H](C(=O)N[C@@H](CO)C(=O)O)NC(=O)[C@H](C(C)(C)C)NC(=O)[C@H](CO)NC(=O)[C@H](Cc2c[nH]c3ccccc23)NC(=O)[C@H]([C@@H](C)O)NC(=O)[C@@H](CCN)NC(=O)[C@H](CCC(=O)N[C@@H](CCN)C(=O)N[C@H](C(=O)N[C@@H](CCN)C(=O)N[C@H]2CCNC(=O)[C@H]([C@@H](C)O)NC(=O)[C@H](CCN)NC(=O)[C@H](CCN)NC(=O)[C@H](CC(C)C)NC(=O)[C@@H](CC(C)C)NC(=O)[C@H](CCN)NC2=O)[C@@H](C)O)NC(=O)[C@H](CCN)NC(=O)[C@H](Cc2ccc(O)cc2)NC1=O)C(C)C [Ex. 52] (I: Ac-VCY[Dab]E[dDab]TWS[Tle]CS-OH / II: [Dab]T[Dab][Dab][Dab][dL]L[Dab][Dab]T; disulfide I:2-I:11; amide I:5-II:N; lactam II:4-II:C) | <1 |
| 0.5 (≈ 0.208 µM) | 0.25 (≈ 0.104 µM) | 8 (≈ 3.33 µM) | 0.5 (≈ 0.208 µM) | 0.125 (≈ 0.0521 µM) | 4 (≈ 1.67 µM) | 0.125 (≈ 0.0521 µM) | 0.125 (≈ 0.0521 µM) | CC(C)C[C@@H]1NC(=O)[C@@H](CC(C)C)NC(=O)[C@H](CCN)NC(=O)[C@@H](NC(=O)[C@H](CCN)NC(=O)[C@@H](NC(=O)[C@H](CCN)NC(=O)CC[C@@H]2NC(=O)[C@H](CCN)NC(=O)[C@H](Cc3ccc(O)cc3)NC(=O)[C@@H](NC(=O)[C@@H](N)C(C)C)CSSC[C@@H](C(=O)N[C@@H](CO)C(=O)O)NC(=O)[C@H](C(C)(C)C)NC(=O)[C@H](CO)NC(=O)[C@H](Cc3c[nH]c4ccccc34)NC(=O)[C@H]([C@@H](C)O)NC(=O)[C@@H](CCN)NC2=O)[C@@H](C)O)CCNC(=O)[C@H]([C@@H](C)O)NC(=O)[C@H](CCN)NC(=O)[C@H](CCN)NC1=O [Ex. 53] (I: H-VCY[Dab]E[dDab]TWS[Tle]CS-OH / II: [Dab]T[Dab][Dab][Dab][dL]L[Dab][Dab]T; disulfide I:2-I:11; amide I:5-II:N; lactam II:4-II:C) | <1 |
| 0.5 (≈ 0.206 µM) | 0.25 (≈ 0.103 µM) | 4 (≈ 1.65 µM) | 0.5 (≈ 0.206 µM) | 0.0625 (≈ 0.0257 µM) | 4 (≈ 1.65 µM) | 0.25 (≈ 0.103 µM) | 0.25 (≈ 0.103 µM) | CC(C)C[C@@H]1NC(=O)[C@@H](CC(C)C)NC(=O)[C@H](CCN)NC(=O)[C@@H](NC(=O)[C@H](CCN)NC(=O)[C@@H](NC(=O)[C@H](CCN)NC(=O)CC[C@@H]2NC(=O)[C@H](CCN)NC(=O)[C@H](Cc3ccc(O)cc3)NC(=O)[C@@H](NC(=O)[C@@H](N)C(C)C)C(C)(C)SSC[C@@H](C(=O)N[C@@H](CO)C(=O)O)NC(=O)[C@H](C(C)(C)C)NC(=O)[C@H](CO)NC(=O)[C@H](Cc3c[nH]c4ccccc34)NC(=O)[C@H]([C@@H](C)O)NC(=O)[C@@H](CCN)NC2=O)[C@@H](C)O)CCNC(=O)[C@H]([C@@H](C)O)NC(=O)[C@H](CCN)NC(=O)[C@H](CCN)NC1=O [Ex. 54] (I: H-V[Pen]Y[Dab]E[dDab]TWS[Tle]CS-OH / II: [Dab]T[Dab][Dab][Dab][dL]L[Dab][Dab]T; disulfide I:2-I:11; amide I:5-II:N; lactam II:4-II:C) | <1 |
| 1 (≈ 0.418 µM) | 0.5 (≈ 0.209 µM) | 8 (≈ 3.34 µM) | 1 (≈ 0.418 µM) | 0.25 (≈ 0.104 µM) | 8 (≈ 3.34 µM) | 0.5 (≈ 0.209 µM) | 0.25 (≈ 0.104 µM) | CC(C)C[C@@H]1NC(=O)[C@@H](CC(C)C)NC(=O)[C@H](CCN)NC(=O)[C@@H](NC(=O)[C@H](CCN)NC(=O)[C@@H](NC(=O)[C@H](CCN)NC(=O)CC[C@@H]2NC(=O)[C@H](CCN)NC(=O)[C@H](Cc3ccc(O)cc3)NC(=O)[C@@H](NC(=O)[C@@H](N)C(C)C)CC(=O)NCC[C@@H](C(=O)N[C@@H](CO)C(=O)O)NC(=O)[C@H](C(C)(C)C)NC(=O)[C@H](CO)NC(=O)[C@H](Cc3c[nH]c4ccccc34)NC(=O)[C@H]([C@@H](C)O)NC(=O)[C@@H](CCN)NC2=O)[C@@H](C)O)CCNC(=O)[C@H]([C@@H](C)O)NC(=O)[C@H](CCN)NC(=O)[C@H](CCN)NC1=O [Ex. 55] (I: H-VDY[Dab]E[dDab]TWS[Tle][Dab]S-OH / II: [Dab]T[Dab][Dab][Dab][dL]L[Dab][Dab]T; lactam I:2-I:11, II:4-II:C; amide I:5-II:N) | 2 |
| 0.25 (≈ 0.107 µM) | 0.125 (≈ 0.0537 µM) | 1 (≈ 0.429 µM) | 0.125 (≈ 0.0537 µM) | 0.125 (≈ 0.0537 µM) | 0.25 (≈ 0.107 µM) | 0.125 (≈ 0.0537 µM) | 0.125 (≈ 0.0537 µM) | CC(C)C[C@@H]1NC(=O)[C@@H](CC(C)C)NC(=O)[C@H](CCN)NC(=O)[C@@H](NC(=O)[C@H](CCN)NC(=O)[C@H](CO)NC(=O)[C@H](CCN)NC(=O)CC[C@@H]2NC(=O)[C@H](CN)NC(=O)[C@H](Cc3ccc(O)cc3)NC(=O)[C@@H](NC(=O)[C@@H](O)C(C)C)CSSC[C@@H](C(=O)NCCO)NC(=O)[C@H](C(C)(C)C)NC(=O)[C@H](CO)NC(=O)[C@H](Cc3c[nH]c4ccccc34)NC(=O)[C@H]([C@@H](C)O)NC(=O)[C@@H](CCN)NC2=O)CCNC(=O)[C@H]([C@@H](C)O)NC(=O)[C@H](CCN)NC(=O)[C@H](CCN)NC1=O [Ex. 59] (I: H-[Hiv]CY[Dap]E[dDab]TWS[Tle]C-NHCH2CH2OH / II: [Dab]S[Dab][Dab][Dab][dL]L[Dab][Dab]T; disulfide I:2-I:11; amide I:5-II:N; lactam II:4-II:C) | <1 |
